Experimental data taken from patent US20050085413A1, “Dimeric pharmaceutical compounds and their use” (priority 2001, published 2005).
In brackets after ≈: the same amount, converted by molar mass. Several values for one entry are separate records, joined by “and”; a condition that tells them apart may be missing. Identical values can stand only once. Counter-ions that a name gives are not always drawn.

What was measured:
Assay in all cases: Plaque reduction assay (PRA) in MDCK cells
[1] = system: A/Victoria/3/75 BVLV017 (H3N2); type: cell-based, influenza virus; conditions: plaque numbers reduced by 50%; for EC50: Influenza A virus, H3N2, MDCK, read-out: EC50 ng/ml PRA A/Vic
[2] = system: A/New Caledonia/20/99 BVLV008 (H1N1); type: cell-based, influenza virus; conditions: plaque numbers reduced by 50%; for EC50: Influenza A virus, H1N1, MDCK, read-out: EC50 ng/ml PRA A/New
[3] = system: A/Panama/2007/99 BVLV008 (H3N2); type: cell-based, influenza virus; conditions: plaque numbers reduced by 50%; for EC50: Influenza A virus, H3N2, MDCK, read-out: EC50 ng/ml PRA A/Pan
[4] = system: B/Hong Kong/5/72 BVLV012; type: cell-based, influenza virus; conditions: for EC50: MDCK, read-out: EC50 ng/ml PRA B/HongK
[5] = system: B/Yamanashi/166/98 BVLV007; type: cell-based, influenza virus; conditions: plaque numbers reduced by 50%; for EC50: unidentified influenza virus, MDCK, read-out: EC50 ng/ml PRA B/Yam, B/Yamanashi/166/98 BVLV007; for EC50 ng/ml PRA B/Yam: B/Yamanashi/166/98 BVLV007
[6] = system: A/WSN/33 BVLV09 (H1N1); type: cell-based, influenza virus; conditions: plaque numbers reduced by 50%; for EC50: Influenza A virus, MDCK, read-out: EC50 ng/ml PRA A/WSN
[7] = system: A/Sydney/5/97 BVLV015 (H3N2); type: cell-based, influenza virus; conditions: plaque numbers reduced by 50%; for EC50: Influenza A virus, MDCK, read-out: EC50 ng/ml PRA A/Syd
[8] = system: A/Bayern/7/95 BVL006 (H1N1); type: cell-based; conditions: Influenza A virus, plaque numbers reduced by 50%, read-out: EC50 ng/ml PRA A/Bay
[9] = system: B/Harbin/7/95 BVLV008; type: cell-based, influenza virus; conditions: read-out: EC50 ng/ml PRA B/Harb
[10] = system: B/Victoria/1/67; type: cell-based, influenza virus; conditions: plaque numbers reduced by 50%, bis(trifluoroacetic acid salt)

Row | Compound | EC50 [1] [ng/mL] | EC50 [2] [ng/mL] | EC50 [3] [ng/mL] | EC50 [4] [ng/mL] | EC50 [5] [ng/mL] | EC50 [6] [ng/mL] | EC50 [7] [ng/mL] | EC50 ng/ml PRA A/Syd [7] [ng/mL] | EC50 ng/ml PRA B/Vic [10] | EC50 ng/ml PRA B/Yam [5] | also measured
1 | NC12CC3CC(CC(C3)C1)C2 [Amantadine] | 220 (≈ 1.45 µM) | 11 (≈ 0.0727 µM) | 157 (≈ 1.04 µM) | > 10000 | 2060 (≈ 13.6 µM) | – | – | – | – | – | –
2 | CC(=O)N[C@H]1[C@H]([C@H](O)[C@H](O)CO)OC(C(=O)O)=C[C@@H]1NC(=N)N [Compound A] | 5.5 (≈ 0.0166 µM) | 0.27 (≈ 0.000812 µM) | 2.7 (≈ 0.00812 µM) | 21 (≈ 0.0632 µM) | – | 56 (≈ 0.169 µM) | 2.4 (≈ 0.00722 µM) | – | – | – | EC50 ng/ml PRA A/WSN [6]: > 100 ng/mL; EC50 ng/ml PRA A/New [2]: 0.23 ng/mL (≈ 0.000692 µM); EC50 ng/ml PRA A/Pan [3]: 3 ng/mL (≈ 0.00903 µM); EC50 [8]: 35 ng/mL (≈ 0.105 µM); EC50 [9]: 0.19 ng/mL (≈ 0.000572 µM)
3 | CC(=O)N[C@H]1[C@H]([C@H](OC(=O)NCCCCCCCCCCCCNC(=O)O[C@@H]([C@@H]2OC(C(=O)O)=C[C@H](NC(=N)N)[C@H]2NC(C)=O)[C@H](O)CO)[C@H](O)CO)OC(C(=O)O)=C[C@@H]1NC(=N)N.O=C(O)C(F)(F)F.O=C(O)C(F)(F)F [Example 2, (2R,3R,4S)-3-(acetylamino)-2-{(1R,20R,21R)-20-((2R,3R,4S)-3-(acetylamino)-4-{[amino(imino)methyl]amino}-6-carboxy-3,4-dihydro-2H-pyran-2-yl)-1-[(1R)-1,2-dihydroxyethyl]-21,22-dihydroxy-3,18-dioxo-2,19-dioxa-4,17-diazadocos-1-yl}-4-{[amino(imino)methyl]amino}-3,4-dihydro-2H-pyran-6-carboxylic acid bis(trifluoroacetic acid salt)] | – | – | – | – | – | – | – | <0.0001 | 0.04 ng/mL and 0.05 ng/mL | <0.0001 ng/mL | –
4 | CC(=O)N[C@H]1[C@H]([C@H](OC(=O)NCCCCCCCCCCCCCCNC(=O)O[C@@H]([C@@H]2OC(C(=O)O)=C[C@H](NC(=N)N)[C@H]2NC(C)=O)[C@H](O)CO)[C@H](O)CO)OC(C(=O)O)=C[C@@H]1NC(=N)N.O=C(O)C(F)(F)F.O=C(O)C(F)(F)F [Example 3, (2R,3R,4S)-3-(acetylamino)-2-{(1R,22R,23R)-22-((2R,3R,4S)-3-(acetylamino)-4-{[amino(imino)methyl]amino}-6-carboxy-3,4-dihydro-2H-pyran-2-yl)-1-[(1R)-1,2-dihydroxyethyl]-23,24-dihydroxy-3,20-dioxo-2,21-dioxa-4,19-diazatetracos-1-yl}-4-{[amino(imino)methyl]amino}-3,4-dihydro-2H-pyran-6-carboxylic acid bis(trifluoroacetic acid salt)] | – | – | – | – | – | – | – | 0.000429 | 0.009 ng/mL and 0.01 ng/mL | <0.0001, <0.0001 ng/ml | EC50 ng/ml PRA A/Vic [1]: 0.0023 ng/mL; EC50 ng/ml PRA B/HongK ([4]; B/Hong Kong/5/72 BVLV012, plaque numbers reduced by 50%): <0.0001 ng/mL
5 | CC(=O)N[C@H]1[C@H]([C@H](OC(=O)NCCCCCCCCCCCCCNC(=O)O[C@H](C(O)CO)[C@@H]2OC(C(=O)O)=C[C@H](NC(=N)N)[C@H]2NC(C)=O)[C@H](O)CO)OC(C(=O)O)=C[C@@H]1NC(=N)N (stereo partly drawn) [Example 4, (2R,3R,4S)-3-(acetylamino)-2-{(1R,21R,22R)-21-((2R,3R,4S)-3-(acetylamino)-4-{[amino(imino)methyl]amino}-6-carboxy-3,4-dihydro-2H-pyran-2-yl)-1-[(1R)-1,2-dihydroxyethyl]-22,23-dihydroxy-3,19-dioxo-2,20-dioxa-4,18-diazatricos-1-yl}-4-{[amino(imino)methyl]amino}-3,4-dihydro-2H-pyran-6-carboxylic acid bis(trifluoroacetic acid salt)] | – | 0.043 | < 1e-05 | 0.06 | < 0.0001 | < 0.0001 | < 0.0001 | – | – | – | –
6 | CCOC(=O)C1=C[C@@H](OC(CC)CC)[C@H](NC(C)=O)[C@@H](N)C1 [Oseltamivir] | 0.11 (≈ 0.000352 µM) | 0.23 (≈ 0.000736 µM) | 0.3 (≈ 0.00096 µM) | 32 (≈ 0.102 µM) | 0.7 (≈ 0.00224 µM) | – | – | – | – | – | –
